Experimental data from PMC7070908, “Structure-Guided Identification of Black Cohosh (Actaea racemosa) Triterpenoids with In Vitro Activity against Multiple Myeloma” (Molecules, 2020).
Converted amounts (≈) assume the structure as drawn. “And” between values parts separate entries of the source, which are not always exact repeats. Identical values can stand only once.

Key:
U266 myeloma cell line = experiment: Cytotoxicity, flow cytometry (AnnexinV/propidium iodide negativity), U266; type: cell-based, human; conditions: for IC50: Homo sapiens, U-266, 24 h; for IC50 / IC50 U266: incubation for 24 h
Description: (§1) Induction of apoptosis was measured in myeloma cell lines NCI-H929, OPM-2, and U266 as well as in peripheral blood mononuclear cells (PBMCs) of healthy donors by flow cytometry using established protocols thereby staining the cells with AnnexinV-fluorescein isothiocyanate and propidium iodide. Bortezomib (Eubio, Vienna, Austria) was used as positive control. Cell lines were purchased from DSMZ (Braunschweig, Germany) and routinely fingerprinted and tested for mycoplasma negativity. All cells (cell lines and PBMC) were grown in RPMI-1640 medium (Life Technologies, Paisley, UK) supplemented with 10% fetal calf serum (FCS; PAA, Linz, Austria), L-glutamine 100 µg/mL, and penicillin-streptomycin 100 U/mL. PBMCs from healthy donors were used after obtaining written informed consent at the University Hospital Salzburg (ethics committee approval 415-E/1287/6-2011). Cells were subjected to Ficoll separation (Ficoll PaqueTM) and incubated in RPMI-1640 Media with supplements as above. In brief, 0.5 × 10^6 myeloma cells/mL or similar numbers of PMBCs were incubated for 24 h and 48 h with or without the tested compounds dissolved in dimethyl sulfoxide at different concentrations. At least three analyses in triplicates were performed for each cell line and a solvent control was always included. As a positive control, the proteasome inhibitor bortezomib (BTZ) was used at concentrations of 10 and 5 nM. The extent of non-apoptotic cells (AnnexinV/propidium iodide negativity) was calculated as percentage of viable cells in respect to the untreated control. Data are shown as mean percentage of viable cells and standard error of the mean (SEM) (error bars).

[1] = system: NCI-H929 myeloma cell line; experiment: Cytotoxicity, flow cytometry (AnnexinV/propidium iodide negativity), NCI-H929; type: cell-based, human; conditions: for IC50: Homo sapiens, NCI-H929, 24 h
Description: as §1

[2] = system: human squamous cell carcinoma (HSC-2) cells; set-up: method as in PMID 11824572; conditions: cited from earlier work
OPM-2 myeloma cell line = experiment: Cytotoxicity, flow cytometry (AnnexinV/propidium iodide negativity), OPM-2; type: cell-based, human; conditions: for IC50: Homo sapiens, OPM-2, 24 h
Description: as §1

[3] = system: normal human gingival fibroblasts (HGF); set-up: method as in PMID 11824572; conditions: cited from earlier work
[4] = system: peripheral blood mononuclear cells (PBMCs) of healthy donors; experiment: Cytotoxicity, flow cytometry (AnnexinV/propidium iodide negativity), PBMC of healthy donors; type: cell-based, human; conditions: for IC50: Homo sapiens, PBMC
Description: as §1

GABA(A)-receptors = system: GABA(A)-receptors; set-up: method as in PMID 21082802; conditions: cited from earlier work
MCF7 cells = system: MCF7 cells; set-up: method as in PMID 20564500; conditions: 48 h of incubation; cited from earlier work
[5] = system: doxorubicin-resistant-MCF7 (R-MCF7) cells; set-up: method as in PMID 20564500; conditions: doxorubicin-resistant MCF7, 48 h of incubation; cited from earlier work
MCF7 breast cancer cells = system: MCF7 breast cancer cells; set-up: method as in PMID 14758092; conditions: incubation times of 96 h; cited from earlier work
[6] = 12.5 µM, 24 h, second round (Table 3)
[7] = 25 µM, 24 h, second round (Table 3)
[8] = 37.5 µM, 24 h, second round (Table 3)
[9] = 25 µM, 24 h, % of untreated control, mean ± SEM (Table 1)
[10] = 25 µM, 48 h, % of untreated control, mean ± SEM (Table 2)
[11] = 50 µM, 24 h, % of untreated control, mean ± SEM (Table 1)
[12] = 50 µM, 48 h, % of untreated control, mean ± SEM (Table 2)

| SMILES | MM Cells % Alive U266 (U266 myeloma cell line; [6]) [%] | MM Cells % Alive U266 (U266 myeloma cell line; [7]) [%] | MM Cells % Alive U266 (U266 myeloma cell line; [8]) [%] | MM Cells % Alive NCI-H929 [1, 6] [%] | MM Cells % Alive NCI-H929 [1, 7] [%] | MM Cells % Alive NCI-H929 [1, 8] [%] | MM Cells % Alive OPM-2 (OPM-2 myeloma cell line; [6]) [%] | MM Cells % Alive OPM-2 (OPM-2 myeloma cell line; [7]) [%] | MM Cells % Alive OPM-2 (OPM-2 myeloma cell line; [8]) [%] | PBMC % Alive [4, 6] [%] | PBMC % Alive [4, 7] [%] | PBMC % Alive [4, 8] [%] | MM Cells % Alive U266 (U266 myeloma cell line; [9]) [%] | MM Cells % Alive U266 (U266 myeloma cell line; [10]) [%] | MM Cells % Alive U266 (U266 myeloma cell line; [11]) | MM Cells % Alive NCI-H929 [1, 9] [%] | MM Cells % Alive NCI-H929 [1, 10] [%] | MM Cells % Alive NCI-H929 [1, 11] | MM Cells % Alive OPM-2 (OPM-2 myeloma cell line; [9]) [%] | MM Cells % Alive OPM-2 (OPM-2 myeloma cell line; [10]) [%] | other results |
| --- | --- | --- | --- | --- | --- | --- | --- | --- | --- | --- | --- | --- | --- | --- | --- | --- | --- | --- | --- | --- | --- |
| COC(C)(C)C1OC23OC1CC(C)C2C1(C)CCC24CC25CCC(OC2OCC(O)C(O)C2O)C(C)(C)C5CCC4C1(C)C3O [Compound 7, 25-O-methylcimigenol-3-O-α-L-arabinopyranoside] | 97.0 ± 3.5 | 51.3 ± 11.8 | 5.3 ± 2.8 | 95.5 ± 1.8 | 34.3 ± 8.0 | 2.5 ± 1.3 | 99.8 ± 1.7 | 88.0 ± 4.5 | 31.3 ± 8.6 | 105.3 ± 0.6 | 81.0 ± 8.5 | 25.0 ± 6.3 |  |  |  |  |  |  |  |  | IC50 (U266 myeloma cell line): 16.2 µg/mL (≈ 25.5 µM); IC50 U266 (U266 myeloma cell line): 16.1 µg/mL (≈ 25.4 µM); IC50 ([1]; incubation for 24 h): 14.7 µg/mL (≈ 23.2 µM); cytotoxic effects against HSC-2 cells (in words) [2]: moderate effects; IC50 (OPM-2 myeloma cell line; incubation for 24 h): 21.2 µg/mL (≈ 33.4 µM); cytotoxic effects against HGF (in words) [3]: moderate effects; IC50 ([4]; 24 h, incubation for 24 h): 19.9 µg/mL (≈ 31.3 µM) |
| CC(=O)OC(CC(C)C1C(=O)C(O)C2(C)C3CCC4C(C)(C)C(OC5OCC(O)C(O)C5O)CCC45CC35CCC12C)C1OC1(C)C [Compound 2, 23-O-acetylshengmanol-3-O-β-D-xylopyranoside] |  |  |  |  |  |  |  |  |  |  |  |  | 79.4 ± 20.2 | 90.2 ± 1.7 | 56.3 ± 21.4% | 87.7 ± 4.9 | 63.9 ± 10.6 | 27.9 ± 12.2% | 86.2 ± 8.6 | 84.6 ± 1.0 | MM Cells % Alive U266 (U266 myeloma cell line; [12]): 62.1 ± 0.4%; MM Cells % Alive NCI-H929 [1, 12]: 17.4 ± 7.3%; effect on GABA(A)-receptors, factor by which it exceeds actein (1) and compound 3 (GABA(A)-receptors): > 5; MM Cells % Alive OPM-2 (OPM-2 myeloma cell line; [11]): 71.0 ± 11.2%; MM Cells % Alive OPM-2 (OPM-2 myeloma cell line; [12]): 51.7 ± 8.9%; IC50 MCF7 (MCF7 cells): 39 µg/mL (≈ 58.8 µM); PBMC % Alive [4, 9]: 94.7 ± 1.8%; PBMC % Alive [4, 10]: 92.7 ± 1.7%; PBMC % Alive [4, 11]: 84.0 ± 3.0%; PBMC % Alive [4, 12]: 76.1 ± 2.1%; IC50 R-MCF7 [5]: 60 µg/mL (≈ 90.5 µM) |
| CC(=O)O[C@@H]1C[C@@]23C[C@@]24CC[C@H](O[C@@H]2OC[C@@H](O)[C@H](O)[C@H]2O)C(C)(C)[C@@H]4CC[C@H]3[C@]2(C)C[C@@H]3O[C@]4(C[C@@H](C)[C@@H]3[C@@]12C)O[C@H](O)[C@@]1(C)O[C@@H]41 [Compound 1, actein] |  |  |  |  |  |  |  |  |  |  |  |  | 90.2 ± 4.1 | 81.0 ± 5.9 | 75.1 ± 6.4% | 80.5 ± 5.9 | 70.2 ± 4.3 | 48.2 ± 10.9% | 93.2 ± 3.7 | 93.1 ± 2.4 | IC50 growth inhibition of MCF7 breast cancer cells (MCF7 breast cancer cells): 14 µg/mL; MM Cells % Alive U266 (U266 myeloma cell line; [12]): 35.5 ± 6.7%; MM Cells % Alive NCI-H929 [1, 12]: 13.2 ± 2.4%; MM Cells % Alive OPM-2 (OPM-2 myeloma cell line; [11]): 81.1 ± 4.7%; MM Cells % Alive OPM-2 (OPM-2 myeloma cell line; [12]): 67.3 ± 6.7%; PBMC % Alive [4, 9]: 96.4 ± 0.1%; PBMC % Alive [4, 10]: 94.6 ± 0.2%; PBMC % Alive [4, 11]: 85.6 ± 1.2%; PBMC % Alive [4, 12]: 74.9 ± 1.2% |
| CC(=O)OC(C)(C)C1OC23OC1CC(C)C2C1(C)CCC24CC25CCC(OC2OCC(O)C(O)C2O)C(C)(C)C5CCC4C1(C)C3O [Compound 3, 25-O-acetylcimigenol-3-O-α-L-arabinopyranoside] | 95.0 ± 2.4 | 77.8 ± 4.6 | 48.0 ± 7.4 | 93.3 ± 1.8 | 59.5 ± 7.8 | 11.8 ± 4.3 | 99.5 ± 2.0 | 88.8 ± 1.8 | 70.8 ± 11.5 | 101.7 ± 0.3 | 98.3 ± 2.0 | 58.7 ± 12.7 | 89.3 ± 3.2 | 66.8 ± 9.5 | 13% and 12.9 ± 3.5% | 52.9 ± 7.1 | 18.9 ± 3.3 | 10% and 10.3 ± 2.8% | 63.8 ± 12 | 43.4 ± 9.3 | IC50 (U266 myeloma cell line): 24.7 µg/mL (≈ 37.3 µM); IC50 ([1]; incubation for 24 h): 18.1 µg/mL (≈ 27.3 µM); MM Cells % Alive OPM-2 (OPM-2 myeloma cell line; [11]): 20% and 19.7 ± 5.7%; IC50 (OPM-2 myeloma cell line; incubation for 24 h): > 37.5 µg/mL; IC50 MCF7 (MCF7 cells): 4.0 µg/mL (≈ 6.03 µM); PBMC % Alive [4, 9]: 86.5 ± 2.7%; PBMC % Alive [4, 10]: 76.2 ± 1.8%; PBMC % Alive [4, 11]: 6.1 ± 1.5%; PBMC % Alive [4, 12]: 4.6 ± 0.1%; IC50 ([4]; 24 h, incubation for 24 h): 25.9 µg/mL (≈ 39.1 µM); IC50 R-MCF7 [5]: 5.3 µg/mL (≈ 8 µM) |
| CC(=O)O[C@@H]1C[C@@]23C[C@@]24CC[C@H](O[C@@H]2OC[C@@H](O)[C@H](O)[C@H]2O)C(C)(C)[C@@H]4CC[C@H]3[C@]2(C)C[C@@H]3O[C@@]4(C[C@@H](C)[C@@H]3[C@@]12C)OC[C@@]1(C)O[C@@H]41 [23-epi-26-deoxyactein] |  |  |  |  |  |  |  |  |  |  |  |  |  |  |  |  |  |  |  |  | IC50 growth inhibition of MCF7 breast cancer cells (MCF7 breast cancer cells): 21 µg/mL |
| CC(=O)OC(C)(C)C1OC23OC1CC(C)C2C1(C)CCC24CC25CCC(OC2OCC(O)C(O)C2O)C(C)(C)C5CCC4C1(C)C3O [Compound 4, 25-O-acetylcimigenol-3-O-β-D-xylopyranoside] | 91.8 ± 4.2 | 87.8 ± 2.0 | 88.0 ± 1.2 | 84.3 ± 8.6 | 59.5 ± 8.7 | 27.8 ± 6.6 | 94.8 ± 5.3 | 90.3 ± 3.7 | 56.0 ± 13.0 | 96.7 ± 2.9 | 72.7 ± 5.4 | 28.7 ± 5.9 |  |  |  |  |  |  |  |  | IC50 U266 (U266 myeloma cell line): >37.5 µg/mL; IC50 NCI-H929 ([1]; incubation for 24 h): 20.3 µg/mL (≈ 30.6 µM); IC50 OPM-2 (OPM-2 myeloma cell line; incubation for 24 h): 26.3 µg/mL (≈ 39.7 µM); IC50 MCF7 (MCF7 cells): 4.3 µg/mL (≈ 6.49 µM); IC50 PBMC ([4]; incubation for 24 h): 20.7 µg/mL (≈ 31.2 µM); IC50 R-MCF7 [5]: 4.8 µg/mL (≈ 7.24 µM) |
| CC(=O)O[C@@H]1C[C@@]23C[C@@]24CC[C@H](O[C@@H]2OC[C@@H](O)[C@H](O)[C@H]2O)C(C)(C)[C@@H]4CC=C3[C@]2(C)C[C@@H]3O[C@@]4(O)[C@H](OC(C)(C)[C@H]4O)[C@@H](C)[C@@H]3[C@@]12C [cimiracemoside A] |  |  |  |  |  |  |  |  |  |  |  |  |  |  |  |  |  |  |  |  | IC50 growth inhibition of MCF7 breast cancer cells (MCF7 breast cancer cells): 41 µg/mL |
